{"source": "patent US7320783B2", "about": "“Methods and compositions for the enhancement of wound healing” (The Regents of the University of Michigan, priority 2002, dated 2008)", "key": {"[1]": {"test_system": "C57BL6Ksdb/db obese diabetic mouse dermal wounds", "details": "topical; Livant et al. (2000) J. Clin. Invest. 105: 1537-1545; cited from earlier work"}, "[2]": {"test_system": "C57BL6Ksdb/db obese diabetic mouse dermal wounds", "assay": "Dermal wound healing in obese diabetic mice, topical application", "format": "in vivo", "details": "FIG. 7", "excerpt": "X axis, days since wounding. Y axis, wound area, relative to the initial wound area (13 to 19 mm^2). Db/db: healing-impaired, homozygous db/db, obese diabetic mice; db/+: normally healing, heterozygous db/+, non-diabetic littermates. Mean wound areas are shown.\nPeptides are further evaluated for their ability to stimulate the diabetic wound healing. The peptides are topically applied to duplicate dermal wounds in healing-impaired obese diabetic mice (Greenhalgh et al., (1990) Am. J. Pathol. 136: 1235-1246), according to published protocols (Livant et al., (2000) J. Clin. Invest. 105: 1537-1545). Wound closure times are determined in both treated and untreated mice. To confirm the importance of the cysteine switch residue, some wounds are treated with the C to S substituted peptides. To quantitate the extent of reepithelialization for several days wounding, wounds are excised, sectioned, stained, and examined microscopically. To evaluate the provisional matrix for indications of wound contraction and angiogenesis, the presence of activated fibroblasts, collagenous fibers, microvasculature, and wound macrophages is assessed in sectioned and stained wounds for several days following wounding as described (Livant et al., (2000) J. Clin. Invest. 105: 1537-1545). These assays are performed using peptides derived from MMP 1, MMP 2, MMP 7, and MMP 9.\nEach treatment group consisted of 10 mice with duplicate, dermal wounds of 12.5 to 16.5 mm^2 made in the shoulder area. Complete methods were as described (Livant et al., (2000) J. Clin. Invest. 105: 1537-1545). Treated animal were treated with 10 μg switch (PRC) sequence from MMP2 (Ac-PRCGNPDVANY-NH2) (SEQ ID NO:3). Wound areas were measured by integration of digital images."}, "[3]": {"test_system": "human microvascular cells", "assay": "SU-ECM in vitro invasion assay, human microvascular cells", "format": "cell-based", "details": "peptide 2, 6, 20, 60 ng/ml; 5% FCS; 4 hours on SU-ECM; FIG. 1", "excerpt": "(§1) About 1×10^5 human microvascular cells, neonatal fibroblasts, or undifferentiated human keratinocytes were suspended in medium containing 5% fetal calf serum (FCS), mixed with varying concentrations of the MMP 7 switch peptide, Ac-PRCGVPDVAEY-NH2 (Gaire et al., (1994) J. Biol. Chem. 269: 2032-2040), function-blocking anti human MMP 1 monoclonal antibody (Birkedal-Hansen et al., (1988) Biochemistry 27; 6751-6758), or total human IgG, and placed on the surfaces of SU-ECM in vitro invasion substrates. SU-ECM invasion substrates are made as described from sea urchin embryos, and contain a blastocoelic cavity enclosed by an intact basement membrane and associated extracellular matrix (Livant et al., (1995) Cancer Research 55, 5085-5093). After 4 hours of incubation (the time necessary to observe maximal invasion percentages), the invasion percentage in each assay was determined by microscopic examination of the SU-ECM invasion substrates and their associated cells at 400-fold magnification. Invasion percentages are the ratios of the numbers of cells located on the internal surfaces of SU-ECM to the total numbers of cells in contact with either the internal or the external surfaces of SU-ECM, and multiplied by 100.\n(§2) Cell culture and SU-ECM invasion assays. […]"}, "[4]": {"test_system": "human neonatal fibroblasts", "assay": "SU-ECM in vitro invasion assay, human neonatal fibroblasts", "format": "cell-based", "details": "peptide 2, 6, 20, 60 ng/ml; 5% FCS; 4 hours on SU-ECM; FIG. 3", "excerpt": "as §1, §2"}, "[5]": {"test_system": "undifferentiated human keratinocytes", "assay": "SU-ECM in vitro invasion assay, human keratinocytes", "format": "cell-based", "details": "peptide 2, 6, 20, 60 ng/ml; 5% FCS; 4 hours on SU-ECM; FIG. 5", "excerpt": "as §1, §2"}, "[6]": {"details": "one topical treatment with 10 μg just after wounding"}}, "data": [{"substance": "Ac-PHSRN-NH2 (listed as Homo sapiens)", "values": [{"measurement": "stimulation of dermal wound healing in obese diabetic C57BL6Ksdb/db mice", "setting": "[1]", "result": "potent topical agent for stimulating dermal wound healing"}]}, {"substance": "Ac-PRCGNPDVANY-NH2 (listed as Homo sapiens) [PRC peptide]", "values": [{"measurement": "decrease of the time required for closure of all db/db wounds, relative to untreated db/db mice", "setting": "[2]; [6]", "result": 50, "unit": "%"}, {"measurement": "rapidity of closure of treated db/db wounds compared with db/+ non-diabetic mice", "setting": "[2]; [6]", "result": "as rapid as that of db/+ non-diabetic mice"}, {"measurement": "enhancement of db/db wound healing (wound area relative to the initial wound area)", "setting": "[2]; single topical application", "result": "enhancement"}]}, {"substance": "Ac-PRCGVPDVAEY-NH2 (listed as Homo sapiens) [MMP 7 switch peptide, MMP 7 prodomain cysteine switch peptide]", "values": [{"measurement": "induction of human microvascular cell invasion (percent of cells invaded)", "setting": "[3]", "result": "induces dose-dependent invasion"}, {"measurement": "induction of human neonatal fibroblast invasion (percent of fibroblasts invaded)", "setting": "[4]", "result": "induces dose-dependent invasion"}, {"measurement": "induction of human keratinocyte invasion (percent of keratinocytes invaded)", "setting": "[5]", "result": "induces dose-dependent invasion"}]}]}
